One molecule from patent publication US20080286147A1, “Apparatus and Method for Decontamination” (GOVERNMENT OF THE U.S.A. OF AMERICA AS REPRESENTED, priority 2004, published 2008) can be followed below.

Several values for one entry are separate records, joined by “and”; a condition that tells them apart may be missing. Equal entries are not always repeated.

What all share (format): cell-based
In test [1] the test system is B. subtilis var. niger spores. Nature of the test: Decontamination of a BSC containing spore test strips using 4000 ppm ClO2 for 60 min. Particulars: 75% relative humidity. The text has this: (§1) Test strips described in Example 1 were placed inside a BSC (FIG. 8) in various positions. Referring to FIGS. 2, 3 and 8, the opening in the front of the BSC 500 was sealed using a polyethylene sheet 502 or plastic sheeting and duct tape. An opening 504 was made in the plastic or polyethylene 502 to permit influx of air and other agents through the sealed BSC 500. Gas was evacuated from the sealed BSC using the port 506 on the top of the sealed BSC through fluid flow path 36.
After sealing the BSC, the sealed area was humidified to 75% relative humidity as described in Example 1. Briefly, water was added to a humidifier/scrubber 22, and a blower 24 attached to the humidifier/scrubber 22 to allow air to pass by the water to generate humidified air. A hose 30 coming from the humidifier/scrubber which emitted humidified air was introduced into an opening 504 in the sealed BSC 500. A hose 36 coming out of the BSC was attached to the blower 22, thereby providing a closed-loop which circulated humidified air from the humidifier/scrubber 22 into the sealed BSC 500, out of the sealed BSC 500 and back to the humidifier/scrubber 22, and so on.
During the humidification, chlorine dioxide gas was introduced into the BSC as described in Example 1. The BSC was exposed to 4000 ppm chlorine dioxide gas for one hour. […]

Test [2] deals with B. subtilis var. niger spores. Nature of the test: Decontamination of a mock BSC containing spore test strips with chlorine dioxide gas; strips cultured in tryptic soy broth. The text has this: Test strips contaminated with 2.4×10^4 B. subtilis var. niger spores (Castle Biospore Biological Indicators, Castle, Inc., Rochester, N.Y.) were placed inside a mock BSC (FIG. 7) in various positions. The mock BSC was generated such that it was sealed from the outside environment, and included two openings to permit influx and efflux of air and other agents through the mock BSC.
After sealing the mock BSC, the sealed mock BSC was humidified to 74-95% relative humidity using the following methods. Referring to FIGS. 2, 3 and 7, water was added to a humidifier/scrubber 22, and a blower 24 attached to the humidifier/scrubber 22 to allow air to pass by the water to generate humidified air. A hose 30 coming from the humidifier/scrubber which emitted humidified air was introduced into one of the openings 402 in the mock BSC 400. A hose 36 coming out of the mock BSC was attached to the blower 22, thereby providing a closed-loop which circulated humidified air from the humidifier/scrubber 22 into the mock BSC 400, out of the mock BSC 400 and back to the humidifier/scrubber 22, and so on. A hygrometer 404 in the mock BSC was used to monitor the relative humidity in the mock BSC.
During the humidification, chlorine dioxide gas was introduced into the mock BSC as follows. A tank 12 containing a 4% chlorine/96% nitrogen gas mixture was turned on to permit the flow of gas to a CDG Saf-T-Chlor™ chlorine dioxide gas generator 14. This generator includes a sodium chlorite cartridge in fluid communication with the 4% Cl/96% N2 gas mixture. The resulting chlorine dioxide gas was allowed to flow into the hose 30 exiting the humidifier/scrubber (containing the humidified air), and was allowed to enter the mock BSC along with the humidified air. A chlorine dioxide monitor in the mock BSC allowed for a determination of the amount of chloride dioxide in the mock BSC. In some instances, the air circulation was increased by including a fan 406 in the mock BSC.
Following exposure to chlorine dioxide, the tank 12 containing a 4% Cl/96% N2 gas mixture was turned off, to stop the flow and production of chlorine dioxide gas. To neutralize the chlorine dioxide gas, the following methods were used. A neutralizing solution that included 10% NaOH and 10% sodium thiosulfate hydrate (in water) was introduced into the humidifier/scrubber 22. Air from the mock BSC containing chlorine dioxide gas was circulated through the closed system described above, such that when the air containing chloride dioxide gas passed through the humidifier/scrubber 22, it was at least partially neutralized. […]

Test [3] has as its system B. subtilis var. niger spores. Nature of the test: Decontamination of a BSC containing spore test strips using 2500 ppm ClO2 for 60 min. Particulars: 70-80% relative humidity.
Excerpt: as §1
After sealing the BSC, the sealed area was humidified to 70-80% relative humidity as described in Examples 1 and 2. During the humidification, chlorine dioxide gas was introduced into the BSC as described in Example 1. The BSC was exposed to 2500 ppm chlorine dioxide gas for one hour. The BSC circulates 15 s/5 min.
Once the hour was up, the chlorine dioxide gas was neutralized as described above. The test strips were cultured as described in Example 1.

For `[O][Cl+][O-]` [ClO2, Chlorine dioxide], the “Kill (number of test strips negative for spore growth)” value was 24/24 and 23/24 in test [1] (4000 ppm ClO2 for 60 min, Runs A-E (76.0-86.0 °F)); 16/16 in test [2] (Run A: 1500 ppm ClO2, exposure 90 min, relative humidity 95%, 69 °F, strips with 2.4×10^4 spores); 16/16 in test [2] (Run B: 1500 ppm ClO2, exposure 90 min, relative humidity 85%, 69 °F); 17/17 in test [2] (Run C: 2200 ppm ClO2, exposure 60 min, relative humidity 74%, 69 °F); 17/17 in test [2] (Run D: 2000 ppm ClO2, exposure 60 min, relative humidity 75%, 68 °F); 24/24 and 23/23 in test [3] (2500 ppm ClO2 for 60 min, Runs A-D (70-74 °F)). For the same molecule, the “spore kill on test strips (in words)” value is on record as “all spores were killed except on one test strip” in test [1] (4000 ppm chlorine dioxide gas for one hour) and “all spores were killed” in test [3] (2500 ppm chlorine dioxide gas for one hour).
